According to US20220218614A1, “IONIZABLE CATIONIC LIPIDS AND LIPID NANOPARTICLES, AND METHODS OF SYNTHESIS AND USE THEREOF” (Tidal Therapeutics, Inc., priority 2020, published 2022):
Entries after “also recorded” stand apart in the source; their conditions may differ.

Assays:
human CD3 T cells = experiment: Transfection of human CD3 T cells (CD8 and CD4 subsets) with Fab/Nb-targeted LNPs; format: cell-based; conditions: targeted Lipid 8 LNP (Lipid 5 in Example 43), GFP mRNA approximately 2.5 μg/mL, approximately 24 hr
Method: LNPs were prepared using the mixing process described in Example 6, the buffer exchange process described below in Example 21. Using methods similar to Example 12, hSP34 and TRX2 Fab-lipid conjugates and a non-T cell specific anti-HER2 lipid-conjugate (Nellis D F, Ekstrom D L, Kirpotin D B, Zhu J, Andersson R, Broadt T L, Ouellette T F, Perkins S C, Roach J M, Drummond D C, Hong K, Marks J D, Park J W and Giardina S L (2005) Preclinical manufacture of an anti-HER2 scFv-PEG-DSPE, liposome-inserting conjugate. 1. Gram-scale production and purification. Biotechnol Prog 21:205-220) were post-inserted at various densities (SP34 0.25-17 g/mol; TRX2 0.25-9 g/mol; SP34+TRX2 0.25-9 g/mol each conjugate; anti-HER2 17 g/mol) into LNPs containing Lipid 8 and anti-CD20 targeting CART mRNA. Transfections were performed with human CD3 T cells at approximately 2.5 μg/mL mRNA for approximately 24 hr. For FACS analysis T cells were stained with M1 antibody (Sigma, F3040) that bind a N-terminus FLAG-tag variant sequence on the TTR-023 CAR (sequence provided below) in addition to staining for CD69 (Biolegend, 310930) and CD4 (Biolegend, 344648) to differentiate CD8 from CD4 cells.
LNPs were prepared using the mixing process described in Example 6, the buffer exchange process described in Example 21. Using methods similar to Example 12, hSP34, TRX2, and Ibalizumab Fab-lipid conjugates and a non-T cell specific anti-HER2 lipid-conjugate were post-inserted at various densities (specified in FIGS. 20A and 20B into LNPs containing Lipid 8 and Cy5/GFP mRNA. Transfections were performed with human CD3 T cells at approximately 2.5 μg/mL mRNA for approximately 24 hr and stained for CD69 (Biolegend, 310930) and CD4 (Biolegend, 344648) to differentiate CD8 from CD4 cells by FACS analysis.
LNPs were prepared using the mixing process described in Example 6, the buffer exchange process described in Example 21. […] Levels of transfection of CD3 T cells was measured by flow cytometry. […]

IFNγ = experiment: Human IFNγ ELISA of T cell culture supernatants after LNP transfection; format: cell-based; conditions: T cells approximately 24 hr after targeted LNPs at approximately 2.5 μg/mL mRNA
Method: LNPs were prepared using the mixing process described in Example 6, the buffer exchange process described in Example 21. hSP34 and TRX2 Fab-lipid conjugates generated from methods described in Example 4 and a non-T cell specific anti-HER2 lipid-conjugate (Nellis D F, Ekstrom D L, Kirpotin D B, Zhu J, Andersson R, Broadt T L, Ouellette T F, Perkins S C, Roach J M, Drummond D C, Hong K, Marks J D, Park J W and Giardina S L (2005) Preclinical manufacture of an anti-HER2 scFv-PEG-DSPE, liposome-inserting conjugate. 1. Gram-scale production and purification. Biotechnol Prog 21:205-220) were post-inserted at various densities (SP34 0.6-17 g/mol; TRX2 3-9 g/mol; anti-HER2 17 g/mol) into LNPs containing Lipid 8, Cy5 labeled GFP mRNA and GFP mRNA (1:9 Cy5:GFP mass ratio) by adding conjugate and LNPs together and heating the solution without mixing in a thermal cycler at 60 C for 60 min and cooled to 4° C. for 3-5 min. […] After transfection, LNP binding efficiency (Cy5) and transfection efficiency (GFP) was evaluated by flow cytometry. Supernatants were measured for human IFNγ concentration using a commercially available ELISA kit under manufacturers recommended conditions (R&D Systems Duoset).
IFN-γ was assayed using an R&D Duoset […] ELISA kit, PN DY285B. […] Optical density at 450 nm was read on a Spectramax M5 plate reader. […]

Substance: SP34 NoDS Fab: anti-CD3 Fab without interchain disulfide, SEQ ID NO: 38 and 39
- % GFP transfection and GFP expression (MFI) of CD8 and CD4 T cells, in words (human CD3 T cells): higher % transfection (FIG. 65E) and higher GFP expression levels (FIG. 65F) than the SP34 DS Fab; also recorded: higher % transfection (FIG. 67A) and higher GFP expression levels

Substance: TRX4: anti-CD3 TRX4 bDS Fab, SEQ ID NO: 50 and 51
- % GFP transfection and GFP expression (MFI) of CD8 and CD4 T cells, in words (human CD3 T cells): lower levels of GFP expression
- IFNγ secretion into supernatant, in words (IFNγ): higher levels of IFNγ secretion than SP34
